Here are results for 23 molecules from patent US4672068A, “Antihypertensive 1,4-dihydropyridines having a conjugated ester” (Fujirebio Kabushiki Kaisha, priority 1984, dated 1987).

For this assay, the system named is Male spontaneously hypertensive rats (SHR), arterial blood pressure. In words: Depressor response after intravenous administration (30 μg/kg), Table 1. It counts as in vivo, rat. The note with it: for Duration: '90<' means greater than 90. As for the experimental part:
Male spontaneously hypertensive rats (SHR) which had mean arterial blood pressures higher than 140 mmHg were used for the experiments. Arterial blood pressure was measured through the catherized artery with a pressure transducer (MPU-0.5, manufactured by Nihon Kohden Kabushiki Kaisha). The catheter was inserted into the abdominal aorta via the median coccygcal artery of SHR under light ether anesthesia. The recordings were made on a rectigraph (manufactured by Sanei Sokki Kabushiki Kaisha). The 1,4-dihydropyridine derivatives prepared in the foregoing examples were administered with catheter which was inserted previously into the caudal vein or duodenum at least two hours after the operation. SHR were restrained with wire mesh cage immediately after the operation. Each derivative to be tested was dissolved in 1.5% PVP/ethanol, and then diluted with 0.9% saline or intravenous administration (30 μg/kg), or suspended in 5% gum arabic solution of intraduodenal administration (1 mg/kg).

On to `COC(=O)C1=C(C)NC(C)=C(C(=O)OCC=CC=Cc2ccco2)C1c1cccc([N+](=O)[O-])c1` (stereo not shown) [Example 52, Methyl 5-(2-furyl)-2,4-pentadienyl 4-(3-nitrophenyl)-2,6-dimethyl-1,4-dihydropyridine-3,5-dicarboxylate], for which the “The time to reach the lowest BP” value is 2.0 min, the “ΔBP (Maximum depressor response)” value was 55 mmHg and the Duration is recorded as greater than 90 min.

In the case of `COC(=O)C1=C(C)NC(C)=C(C(=O)OC(C)(C)C=Cc2ccccc2)C1c1cccc([N+](=O)[O-])c1` (stereo not shown) [Example 23, 1,1-dimethyl-3-phenyl-2-propenyl methyl 4-(3-nitrophenyl)-2,6-dimethyl-1,4-dihydropyridine-3,5-dicarboxylate], the “The time to reach the lowest BP” value was 2.2 min and the “ΔBP (Maximum depressor response)” value was 48 mmHg.

Turning to `C=C(C)COC(=O)C1=C(C)NC(C)=C(C(=O)OCC=CC=CC)C1c1cccc([N+](=O)[O-])c1` (stereo not shown) [Example 77, 2-methyl-2-propen-1-yl 2,4-hexadienyl 4-(3-nitrophenyl)-2,6-dimethyl-1,4-dihydropyridine-3,5-dicarboxylate], the “The time to reach the lowest BP” value turned out to be 2 min and the “ΔBP (Maximum depressor response)” value came out at 60 mmHg.

Regarding “Benzyl 2,4-hexadienyl 4-(2-furyl)-2,6-dimethyl-1,4-dihydropyridine-3,5-dicarboxylate [Example 81]”, the “The time to reach the lowest BP” value is reported as 2.0 min and the “ΔBP (Maximum depressor response)” value turned out to be 25 mmHg.

For `C=CCCOC(=O)C1=C(C)NC(C)=C(C(=O)OCC=CC=CC)C1c1cccc([N+](=O)[O-])c1` (stereo not shown) [Example 79, 3-butenyl 2,4-hexadienyl 4-(3-nitrophenyl)-2,6-dimethyl-1,4-dihydropyridine-3,5-dicarboxylate], the “The time to reach the lowest BP” value is 2.7 min and the “ΔBP (Maximum depressor response)” value was determined as 55 mmHg.

Consider `CC1=C(C(=O)OC(C)C)C(c2cccc([N+](=O)[O-])c2)C(C(=O)OC(C)C=Cc2ccccc2)=C(C)N1` (stereo not shown) [Example 32, 1-methyl-3-phenyl-2-propenyl isopropyl 4-(3-nitrophenyl)-2,6-dimethyl-1,4-dihydropyridine-3,5-dicarboxylate], for which the “The time to reach the lowest BP” value is reported as 5 min, the “ΔBP (Maximum depressor response)” value was determined as 90 mmHg and the Duration is reported as greater than 190 min.

As to `COC(=O)C1=C(C)NC(C)=C(C(=O)OCC=CC=Cc2ccc3ccccc3c2)C1c1cccc([N+](=O)[O-])c1` (stereo not shown) [Example 53, Methyl 5-(2-naphthyl)-2,4-pentadienyl 4-(3-nitrophenyl)-2,6-dimethyl-1,4-dihydropyridine-3,5-dicarboxylate], the “The time to reach the lowest BP” value was determined as 18 min, the “ΔBP (Maximum depressor response)” value was 25 mmHg and the Duration is listed as 90 min.

With `COC(=O)C1=C(C)NC(C)=C(C(=O)OC(C=Cc2ccccc2)C(C)(C)C)C1c1cccc([N+](=O)[O-])c1` (stereo not shown) [Example 6, 1-tert-butyl-3-phenyl-2-propenyl methyl 4-(3-nitrophenyl)-2,6-dimethyl-1,4-dihydropyridine-3,5-dicarboxylate], the “The time to reach the lowest BP” value came to 70 min, the “ΔBP (Maximum depressor response)” value is 55 mmHg and the Duration is given as greater than 90 min.

Turning to `CC=CC=CCOC(=O)C1=C(C)NC(C)=C(C(=O)OCC=Cc2ccccc2)C1c1cccc([N+](=O)[O-])c1` (stereo not shown) [Example 71, Cinnamyl 2,4-hexadienyl 4-(3-nitrophenyl)-2,6dimethyl-1,4-dihydropyridine-3,5-dicarboxylate], the “The time to reach the lowest BP” value was 10 min, the “ΔBP (Maximum depressor response)” value came out at 42 mmHg and the Duration is on record as greater than 90 min.

In the case of `COC(=O)C1=C(C)NC(C)=C(C(=O)OC/C=C/C=C\c2ccccc2)C1c1cccc([N+](=O)[O-])c1` (stereo not shown) [Example 58, Methyl (2E,4Z)-5-phenyl-2,4-pentadienyl 4-(3-nitrophenyl)-2,6-dimethyl-1,4-dihydropyridine-3,5-dicarboxylate], the “The time to reach the lowest BP” value was found to be 1.9 min and the “ΔBP (Maximum depressor response)” value came to 64 mmHg.

Consider `C=CCOC(=O)C1=C(C)NC(C)=C(C(=O)OCC=CC=CC)C1c1cccc([N+](=O)[O-])c1` (stereo not shown) [Example 80, Allyl 2,4-hexadienyl 4-(3-nitrophenyl)-2,6-dimethyl-1,4-dihydropyridine-3,5-dicarboxylate], for which the “The time to reach the lowest BP” value came to 1.4 min and the “ΔBP (Maximum depressor response)” value was determined as 40 mmHg.

`CC=CC=CCOC(=O)C1=C(C)NC(C)=C(C(=O)OCC2CC2)C1c1cccc([N+](=O)[O-])c1` (stereo not shown) [Example 85, Cyclopropylmethyl 2,4-hexadienyl 4-(3-nitrophenyl)-2,6-dimethyl-1,4-dihydropyridine-3,5-dicarboxylate]: the “The time to reach the lowest BP” value turned out to be 2.6 min and the “ΔBP (Maximum depressor response)” value was 35 mmHg.

For the molecule `CC=CC=CCOC(=O)C1=C(C)NC(C)=C(C(=O)OC2CCCCC2)C1c1cccc([N+](=O)[O-])c1` (stereo not shown) [Example 70, Cyclohexyl 2,4-hexadienyl 4-(3-nitrophenyl)-2,6-dimethyl-1,4-dihydropyridine-3,5-dicarboxylate], the “The time to reach the lowest BP” value is on record as 7.0 min, the “ΔBP (Maximum depressor response)” value stood at 65 mmHg and the Duration is listed as greater than 90 min.

`COC(=O)C1=C(C)NC(C)=C(C(=O)OC(C)C=CC2=C(C)CCCC2(C)C)C1c1cccc([N+](=O)[O-])c1` (stereo not shown) [Example 74]: the “The time to reach the lowest BP” value was determined as 20 min, the “ΔBP (Maximum depressor response)” value was determined as 75 mmHg and the Duration is reported as greater than 120 min.

As for `COCCOC(=O)C1=C(C)NC(C)=C(C(=O)OC(C)C=Cc2ccccc2)C1c1cccc([N+](=O)[O-])c1` (stereo not shown) [Example 34, 1-methyl-3-phenyl-2-propenyl 2-methoxyethyl 4-(3-nitrophenyl)-2,6-dimethyl-1,4-dihydropyridine-3,5-dicarboxylate], the “The time to reach the lowest BP” value turned out to be 5 min, the “ΔBP (Maximum depressor response)” value turned out to be 45 mmHg and the Duration is on record as greater than 230 min.

As for `COC(=O)C1=C(C)NC(C)=C(C(=O)OCCC=Cc2ccc([N+](=O)[O-])cc2)C1c1cccc([N+](=O)[O-])c1` (stereo not shown) [Example 21, 4(p-nitrophenyl)-3-butenyl methyl 4-(3-nitrophenyl)-2,6-dimethyl-1,4-dihydropyridine-3,5-dicarboxylate], the “The time to reach the lowest BP” value turned out to be 1.0 min, the “ΔBP (Maximum depressor response)” value is given as 70 mmHg and the Duration was greater than 120 min.

Take `CCC(C=Cc1ccccc1)OC(=O)C1=C(C)NC(C)=C(C(=O)OC)C1c1cccc([N+](=O)[O-])c1` (stereo not shown) [Example 25, 1-ethyl-3-phenyl-2-propenyl methyl 4-(3-nitrophenyl)-2,6-dimethyl-1,4-dihydropyridine-3,5-dicarboxylate]: the “The time to reach the lowest BP” value is on record as 10 min, the “ΔBP (Maximum depressor response)” value stood at 71 mmHg and the Duration is greater than 240 min.

As for `COC(=O)C1=C(C)NC(C)=C(C(=O)OC(C=Cc2ccccc2)C(C)C)C1c1cccc([N+](=O)[O-])c1` (stereo not shown) [Example 8, 1-isopropyl-3-phenyl-2-propenyl methyl 4-(3-nitrophenyl)-2,6-dimethyl-1,4-dihydropyridine-3,5-dicarboxylate], the “The time to reach the lowest BP” value is on record as 25 min, the “ΔBP (Maximum depressor response)” value amounted to 87 mmHg and the Duration was greater than 180 min.

`CC=CC=CCOC(=O)C1=C(C)NC(C)=C(C(=O)OCCOC)C1c1cccc([N+](=O)[O-])c1` (stereo not shown) [Example 69, 2-methoxyethyl 2,4-hexadienyl 4-(3-nitrophenyl)-2,6-dimethyl-1,4-dihydropyridine-3,5-dicarboxylate]: the “The time to reach the lowest BP” value is 1.0 min, the “ΔBP (Maximum depressor response)” value was 60 mmHg and the Duration was greater than 90 min.

`COC(=O)C1=C(C)NC(C)=C(C(=O)OCC=Cc2ccc3ccccc3c2)C1c1cccc([N+](=O)[O-])c1` (stereo not shown) [Example 29, 3-(2-naphthyl)-2-propenyl methyl 4-(3-nitrophenyl)-2,6-dimethyl-1,4-dihydropyridine-3,5-dicarboxylate]: the “The time to reach the lowest BP” value was found to be 5.0 min and the “ΔBP (Maximum depressor response)” value was found to be 25 mmHg.

`CCSCCOC(=O)C1=C(C)NC(C)=C(C(=O)OCC=Cc2ccccc2)C1c1cccc([N+](=O)[O-])c1` (stereo not shown) [Example 41, cinnamyl 2-ethylthioethyl 4-(3-nitrophenyl)-2,6-dimethyl-1,4-dihydropyridine-3,5-dicarboxylate]: the “The time to reach the lowest BP” value is on record as 5 min, the “ΔBP (Maximum depressor response)” value came to 28 mmHg and the Duration was greater than 120 min.

Regarding `CC1=C(C(=O)OCC=Cc2ccccc2)C(c2cccc([N+](=O)[O-])c2)C(C(=O)OCCSc2ccccc2)=C(C)N1` (stereo not shown) [Example 42, Cinnamyl 2-phenylthioethyl 4-(3-nitrophenyl)-2,6-dimethyl-1,4-dihydropyridine-3,5-dicarboxylate], the “The time to reach the lowest BP” value was determined as 10 min, the “ΔBP (Maximum depressor response)” value is on record as 35 mmHg and the Duration is given as greater than 90 min.

For the molecule `CC1=C(C(=O)OCC=Cc2ccccc2)C(c2cccc([N+](=O)[O-])c2)C(C(=O)OC(C)C=Cc2ccccc2)=C(C)N1` (stereo not shown) [Example 47, Cinnamyl 1-methyl-3-phenyl-2-propenyl 4-(3-nitrophenyl)-2,6-dimethyl-1,4-dihydropyridine-3,5-dicarboxylate], the “The time to reach the lowest BP” value came to 48 min, the “ΔBP (Maximum depressor response)” value came to 67 mmHg and the Duration is greater than 120 min.
